Data as given in US12036289B2, “Gadolinium bearing PCTA-based contrast agents” (BRACCO IMAGING S.P.A., priority 2018, dated 2024).
Where two headings read alike, the source gives them in different places. Marks after values point to notes of the source that are not given here. Values belong to the compound of their own block, whether it stands above or below them.

Assays:
[1] = Acid catalyzed dissociation kinetics of Gadopiclenol (isomeric mixture) and of enantiomers pair C coupled with isoserinol in 1.0 M HCl, followed by HPLC; type: physicochemical; conditions: 1.0M HCl, 25° C.; fitting of area-time data
Description: The average half-life of the obtained conjugated compounds and of Gadopiclenol (isomeric mixture) were calculated considering the decrease of the HPLC total area over time as described in detail in Example 8. For amide derivatives obtained by reaction of RRR/SSS Gd(PCTA-tris-glutaric acid) with i) R-isoserinol; ii)S-isoserinol; and iii) racemic isoserinol the kX pseudo-first-order rate constants and half-lives (t1/2=ln 2/kX) were also calculated by fitting the area—time data pairs as carried out for RRR/SSS Gd(PCTA-tris-glutaric acid) in Example 7.
The HPLC measurements were performed with Thermo Finnigan LCQ DECA XPPlus system according to the analytical Procedure 2.
HPLC chromatogram of Gadopiclenol collected as isomeric mixture from Example 2 is characterized by the presence of 4 major peaks (identified for convenience as A′, B′, C′ and D′) having the same MS and UV-Vis spectra. However, there is only one signal in the HPLC chromatogram of the complex compounds obtained by coupling the enantiomers pair C with isoserinol, whether it is R, S isoserinol or racemic-isoserinol (FIG. 6). Since, as observed, the chirality of the isoserinol pendant has no influence on the retention time of coupled diastereoisomers, the presence of 4 signals in the HPLC chromatograms of Gadopiclenol (isomeric mixture) could be interpreted by the presence of 4 enantiomer pairs formed with the stereocenters of the of the glutaric acid residue: 1) RRR-SSS (Signal D′), 2) RSR-SRS, 3) RRS-SSR and 4) RSS-SRR.
The progress of the reactions was checked by HPLC over time, plotting the area values of the peaks of the complex as a function of time, as above discussed in Example 7 for Gd(PCTA-tris-glutaric acid) isomers.
As expected, the integral values of A′, B′, C′, and D′ decrease over time, whereas the peak of the free ligand increases. […] The half-life of complexes obtained by coupling the enantiomers pair C with R, S and racemic-isoserinol was also calculated from the half of the area values in the HPLC chromatograms.

[2] = Relaxometric properties: longitudinal relaxivity r1; type: physicochemical
Description: The relaxometric properties of the PCTA-based complex compounds according to the invention have been measured at different magnetic field strengths, i.e. 0.47 and 1.41 T, at 37° C. and in different media (water and human plasma) and compared with relaxivity values measured, at the same conditions, for Gd-Complex having an analogous coordination cage.
The longitudinal water proton relaxation rate (R1=1/T1) was measured at 0.47 T with a Minispec MQ-20 spectrometer (Bruker Biospin, Germany) operating at a proton Larmor frequency of 20 MHz; MR experiments at 1.41 T were performed using a Minispec MQ-60 spectrometer (Bruker Biospin, Germany) operating at a proton Larmor frequency of 60 MHz.
All test articles were used as supplied and diluted in the selected medium (water or human plasma) by weighting the required amount of paramagnetic chelated complex to get a 5 or 10 mM starting solution.
Five different concentration samples (0.1, 0.25, 0.5, 0.75 and 1 mM) for each medium have been prepared by further dilution of the starting 5 or 10 mM solution.
Relaxivity measurements were performed at 0.47 T and 1.41 T at a preset temperature sample of 37° C., kept constant by means of a thermostatic bath connected to the sample holder of the spectrometer. The five sample solutions have been preliminary pre-heated at 37° C. in an external thermostatic bath and then left 10 minutes inside the internal bath to assure the stabilization of the temperature. Longitudinal relaxation time T1 was measured by means of a standard inversion recovery sequence, where the inversion time (TI) was varied from 10 ms to at least 5 times T1 in 15 steps. Statistical analysis (mono-exponential fitting for T1 measurement, linear fitting for the evaluation of longitudinal relaxivity) was performed by Mathematica® (Wolfram, USA). Errors on the estimated parameters were evaluated by the fitting procedure.

[3] = 1.0M HCl (pH 0), 25° C.; literature value; cited from earlier work
[4] = 1.0M HCl, 25° C.; literature value; cited from earlier work
[5] = pH 0
Description: In order to investigate the kinetic inertness of the racemic mixture of the Gd(PCTA-tris-glutaric acid) and, particularly, of the four enantiomer pairs thereof separated by HPLC, we investigated their dissociation reactions taking place under acidic conditions. A large excess of H^+ ([HCl]=1.0 M) was in particular exploited in order to guarantee the pseudo-first order kinetic conditions.
A solution of Gd(PCTA-tris-glutaric acid) (isomeric mixture) in 1 M HCl was prepared and was analysed over the time as explained in Example 7.
In particular, the area value for each of the A, B, C, and D peaks was assessed over the time by HPLC.
The decrease of the integral area values of signals of A, B, C, and D was thus assessed and plotted as a function of the time.
kX pseudo-first-order rate constants (where kX is =kA, kB, kC and kD respectively), characterizing the dissociation rate of the different enantiomer pairs of the Gd(PCTA-tris-glutaric acid) complex and half-lives (t1/2=ln2/kX) were then calculated by fitting the area —time data pairs, as explained in details in Example 7. The average half-life value for the isomeric mixture of Gd(PCTA-tris-glutaric acid) was also obtained, by considering the percentage composition of the mixture. […]

[6] = cited from earlier work
[7] = cited from earlier work; remark: listed apart in the source

Compound: O=C(CCC(C(=O)[O-])N1CCN(C(CCC(=O)NCC(O)CO)C(=O)[O-])Cc2cccc(n2)CN(C(CCC(=O)NCC(O)CO)C(=O)[O-])CC1)NCC(O)CO.[Gd+3] (single isomer, unassigned) [Enantiomers pair C + S-isoserinol]
kx (s^−1) pseudo-first-order rate constant of acid catalyzed dissociation [1]: (4.6 ± 0.3) × 10^−6 s^−1 | r1 (mM^−1s^−1) H2O, 0.5T, 37° C. [2]: 12.9 ± 0.2 mM⁻¹ s⁻¹ | r1 (mM^−1s^−1) HSA, 1.5T, 37° C. [2]: 13.9 ± 0.2 mM⁻¹ s⁻¹

Compound: O=C(CCC(C(=O)[O-])N1CCN(C(CCC(=O)NCC(O)CO)C(=O)[O-])Cc2cccc(n2)CN(C(CCC(=O)NCC(O)CO)C(=O)[O-])CC1)NCC(O)CO.[Gd+3] (single isomer, unassigned) [Enantiomers pair C + racemic-isoserinol]
kx (s^−1) pseudo-first-order rate constant of acid catalyzed dissociation [1]: (4.5 ± 0.4) × 10^−6 s^−1 | r1 (mM^−1s^−1) H2O, 0.5T, 37° C. [2]: 13.0 ± 0.1 mM⁻¹ s⁻¹ | r1 (mM^−1s^−1) HSA, 1.5T, 37° C. [2]: 14.0 ± 0.2 mM⁻¹ s⁻¹

Compound: O=C([O-])CN1CCN(CC(=O)[O-])CCN(CC(=O)O)CCN(CC(=O)[O-])CC1.[Gd+3] [Dotarem, Gd-DOTA]
k1 (s^−1) rate constant of acid catalyzed dissociation [3]: 8e-06 s⁻¹ | kx (s^−1) rate constant of acid catalyzed dissociation [4]: 8e-06 s⁻¹

Compound: O=C([O-])CN1CCN(CC(=O)[O-])Cc2cccc(n2)CN(CC(=O)[O-])CC1.[Eu+3] [Eu(PCTA), europium complex of the 3,6,9,15-tetraazabicyclo[9.3.1]pentadeca-1(15),11,13-triene-3,6,9,-triacetic acid]
k1 (s^−1) rate constant of acid catalyzed dissociation [3]: 0.000508 s⁻¹ | kx (s^−1) rate constant of acid catalyzed dissociation [4]: 0.000508 s⁻¹

Compound: gadolinium chelate of 2,2′,2″-(3,6,9-triaza-1(2,6)-pyridinacyclodecaphane-3,6,9-triyl)tris(5-((2,3-dihydroxypropyl)amino)-5-oxopentanoic acid) [Gadopiclenol (isomeric mixture)]
stability (log K^term) ([6]; Investigative Radiology 2019, Vol 54, (8), 475-484): 18.7 | thermodynamic equilibrium constant (log K^term) ([6]; reported in EP 2988756): 14.9 | r1 (mM^−1s^−1) H2O, 0.5T, 37° C. ([7]; H2O, 0.5T, 37° C., value reported in EP 1931673): 11* mM^−1s^−1 | r1 (mM^−1s^−1) HSA, 1.5T, 37° C. ([7]; HSA, 1.5T, 37° C., value reported in Invest. Radiol. 2015, 50, 835-842): 12.8 ± 1.3** mM^−1s^−1 | relaxivity ([7]; in human serum (37° C., 1.41 T), Investigative Radiology 2019, Vol 54, (8), 475-484): 12.8 mM⁻¹ s⁻¹ | relaxivity ([7]; in water, at 0.5 T, 37° C., reported in EP1931673): 11 mM^−1s^−1Gd^−1

Now from value to compound, other results behind:

r1 (mM^−1s^−1) H2O, 0.5T, 37° C. [2]: 12.9 ± 0.1 mM⁻¹ s⁻¹ | r1 (mM^−1s^−1) HSA, 1.5T, 37° C. [2]: 14.0 ± 0.3 mM⁻¹ s⁻¹
Compound: O=C(CCC(C(=O)[O-])N1CCN(C(CCC(=O)NCC(O)CO)C(=O)[O-])Cc2cccc(n2)CN(C(CCC(=O)NCC(O)CO)C(=O)[O-])CC1)NCC(O)CO.[Gd+3] (single isomer, unassigned) [Enantiomers pair C + R-isoserinol]
kx (s^−1) pseudo-first-order rate constant of acid catalyzed dissociation [1]: (4.9 ± 0.4) × 10^−6 s^−1

t1/2 (hour) dissociation half-life (t1/2 = ln2/kx) [5]: 120 ± 3 h | r1 (mM^−1s^−1) H2O, 0.5T, 37° C. [2]: 9.3 ± 0.1 mM⁻¹ s⁻¹ | r1 (mM^−1s^−1) H2O, 0.5T, 37° C. ([2]; listed as enantiomers pair C): 9.3 ± 0.1 mM⁻¹ s⁻¹
Compound: RRR/SSS Gd(PCTA-tris-glutaric acid)
